Patent publication US20100240652A1, “Pyridine Derivatives as Sodium Channel Modulators” (Pfizer Inc, priority 2006, published 2010)

Each compound was assayed against T1, Human NaV1.8 (Homo sapiens, UniProt Q9Y5Y9) (assay: VIPR assay for NaV1.8 compounds (FRET membrane potential)). Details: Human NaV1.8 HEK293 expressing cell line, channels held open with deltamethrin.
T1 construct: expressed in transfected cells
Format: cell-based
Text: The ability of the pyridine derivatives of the formula (I) to inhibit the NaV1.8 channel may be measured using the assay described below.
VIPR Assay for NaV1.8 compounds
This screen is used to determine the effects of compounds on tetrodotoxin-resistant (TTX-R) sodium channels in Human NaV1.8— (HEK293) expressing cell line, utilising the technology of Aurora's fluorescent Voltage/Ion Probe Reader (VIPR). This experiment is based on FRET (Fluorescence Resonance Energy Transfer) and uses two fluorescent molecules. The first molecule, Oxonol (DiSBAC2(3)), is a highly fluorescent, negatively charged, hydrophobic ion that “senses” the trans-membrane electrical potential. In response to changes in membrane potential, it can rapidly redistribute between two binding sites on opposite sides of the plasma membrane. The voltage dependent redistribution is transduced into a ratiometric fluorescent readout via a second fluorescent molecule (Coumarin (CC2-DMPE)) that binds specifically to one face of the plasma membrane and functions as a FRET partner to the mobile voltage-sensing ion. To enable the assay to work, the channels have to be pharmacologically held in the open state. This is achieved by treating the cells with either deltamethrin (for NaV1.8) or veratridine (for the SHSY-5Y assay for TTX-S channels).
Human NaV1.8 cells are grown in T225 flasks, in a 5% CO2 humidified incubator to about 70% confluence. Media composition consists of DMEM/F-12, 10% FCS and 300 μg/ml Geneticine. They are split using cell dissociation fluid 1:5 to 1:20, depending on scheduling needs, and grown for 3-4 days before the next split.
Plate-out HEK-NaV1.8 cells (100 μl per well) into poly-D-lysine coated plates prior to experimentation as follows:—24 hours @ 3.5×10^4 cells/well (3.5×10^5 cells/ml) or using the technology of Select.
1. Equilibrate buffers at room temperature for 2 hours or at 37° C. for 30 minutes prior to experimentation. 2. Prepare Coumarin dye (see below) and store in dark. Prime the plate washer with Na^+ Free buffer and wash cells twice, Note: Plate washer deposits ˜30 μl residual buffer per well. Add 100 μL Coumarin (CC2-DMPE) solution (see below) to cells and incubate for 45 minutes at room temperature avoiding bright light. 3. Prepare Oxonol (DiSBAC2(3)) dye (see below): 4. Aspirate off Coumarin solution from the cells by washing in Na^+ Free buffer. 5. Add 30 μl compound then add 30 μl Oxonol solution to the cells and incubate for 45 minutes at room temperature in the dark (total well volume ˜90 μl). 6. Once the incubation is complete, the cells are ready to be assayed using the VIPR for sodium addback membrane potential.
The data was analyzed and reported as normalised ratios of intensities measured in the 460 nm and 580 nm channels. The process of calculating these ratios was performed as follows. An additional plate contained control solution with the same DisBAC2(3) concentrations as used in the cell plates, however no cells were included in the background plate. Intensity values at each wavelength were averaged for sample points 5-7 (initial) and 44-49 (final). These averages were subtracted from intensity values averaged over the same time periods in all assay wells. The initial ratio obtained from samples 3-8 (Ri) and the final ratio obtained from samples 45-50 (Rf) are defined as: […]
Final data are normalised to the starting ratio of each well and reported as Rf/Ri. This analysis is performed using a computerised specific programme designed for VIPR generated data. Rf/Ri ratio values are plotted using Excel Labstats (curve fit) or analysed via ECADA to determine an IC50 value for each compound.

T1 sequence (Q9Y5Y9 whole entry): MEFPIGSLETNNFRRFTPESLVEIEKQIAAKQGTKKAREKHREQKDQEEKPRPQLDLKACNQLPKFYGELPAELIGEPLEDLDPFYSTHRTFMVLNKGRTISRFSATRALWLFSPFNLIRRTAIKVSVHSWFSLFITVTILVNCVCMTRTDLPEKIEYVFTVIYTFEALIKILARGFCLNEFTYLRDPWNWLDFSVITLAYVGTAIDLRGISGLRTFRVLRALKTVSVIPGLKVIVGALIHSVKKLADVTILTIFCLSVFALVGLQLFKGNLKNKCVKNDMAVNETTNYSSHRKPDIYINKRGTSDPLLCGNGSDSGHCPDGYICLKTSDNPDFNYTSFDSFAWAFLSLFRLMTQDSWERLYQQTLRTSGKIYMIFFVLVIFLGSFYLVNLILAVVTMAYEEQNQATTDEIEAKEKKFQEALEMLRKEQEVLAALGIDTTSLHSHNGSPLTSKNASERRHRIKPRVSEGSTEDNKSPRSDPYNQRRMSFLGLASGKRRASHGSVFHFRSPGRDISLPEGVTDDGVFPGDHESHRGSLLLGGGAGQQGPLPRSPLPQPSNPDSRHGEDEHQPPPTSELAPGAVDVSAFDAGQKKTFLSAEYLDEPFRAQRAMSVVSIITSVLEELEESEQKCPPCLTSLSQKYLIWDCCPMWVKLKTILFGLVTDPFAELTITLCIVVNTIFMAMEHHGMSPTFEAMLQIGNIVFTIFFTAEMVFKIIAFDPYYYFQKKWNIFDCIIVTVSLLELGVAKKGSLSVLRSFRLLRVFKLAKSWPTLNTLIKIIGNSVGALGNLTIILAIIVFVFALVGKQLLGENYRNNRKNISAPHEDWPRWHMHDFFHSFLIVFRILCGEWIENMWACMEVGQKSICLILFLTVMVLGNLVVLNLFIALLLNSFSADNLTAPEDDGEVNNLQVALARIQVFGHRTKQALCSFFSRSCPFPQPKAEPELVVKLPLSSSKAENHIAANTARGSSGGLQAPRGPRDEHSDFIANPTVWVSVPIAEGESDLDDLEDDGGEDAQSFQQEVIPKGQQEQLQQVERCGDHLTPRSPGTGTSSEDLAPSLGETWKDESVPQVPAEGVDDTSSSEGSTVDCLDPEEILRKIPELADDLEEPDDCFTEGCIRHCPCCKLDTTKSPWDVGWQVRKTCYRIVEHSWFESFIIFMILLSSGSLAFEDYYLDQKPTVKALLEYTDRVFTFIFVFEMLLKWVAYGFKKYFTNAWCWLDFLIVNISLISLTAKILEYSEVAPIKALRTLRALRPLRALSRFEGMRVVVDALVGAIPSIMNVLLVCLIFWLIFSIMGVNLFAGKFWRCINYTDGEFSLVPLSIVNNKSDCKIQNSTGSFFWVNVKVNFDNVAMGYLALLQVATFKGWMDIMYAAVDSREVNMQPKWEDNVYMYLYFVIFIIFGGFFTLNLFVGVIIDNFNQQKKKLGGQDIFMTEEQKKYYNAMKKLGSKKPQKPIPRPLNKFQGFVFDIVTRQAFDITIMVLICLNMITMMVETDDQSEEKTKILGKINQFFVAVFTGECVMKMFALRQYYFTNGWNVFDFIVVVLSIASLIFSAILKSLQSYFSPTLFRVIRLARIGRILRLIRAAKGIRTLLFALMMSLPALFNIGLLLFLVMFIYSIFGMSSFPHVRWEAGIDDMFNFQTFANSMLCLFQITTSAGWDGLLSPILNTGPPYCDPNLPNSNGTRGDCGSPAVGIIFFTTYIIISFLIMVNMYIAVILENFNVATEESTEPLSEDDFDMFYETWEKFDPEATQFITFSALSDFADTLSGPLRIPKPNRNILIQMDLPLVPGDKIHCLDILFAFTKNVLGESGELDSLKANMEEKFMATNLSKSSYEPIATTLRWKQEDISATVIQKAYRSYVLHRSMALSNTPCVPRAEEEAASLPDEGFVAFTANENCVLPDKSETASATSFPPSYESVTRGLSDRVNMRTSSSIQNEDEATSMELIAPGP

| Compound | IC50 [nM] |
| --- | --- |
| CN/C(=N\C#N)c1ccc(-c2cc(Cl)cc(Cl)c2Cl)c(N)n1 [Example 2, 6-Amino-N′-cyano-N-methyl-5-(2,3,5-trichlorophenyl)pyridine-2-carboximidamide] | 1630 |
| C/N=C(/c1ccc(-c2cc(Cl)cc(Cl)c2Cl)c(N)n1)N1CCOCC1 [Example 4, 6-(Methylimino-morpholin-4-yl-methyl)-3-(2,3,5-trichloro-phenyl)-pyridin-2-ylamine] | 4580 |
| CC/N=C(\NCC)c1ccc(-c2cc(Cl)cc(Cl)c2Cl)c(N)n1 [Example 5, 6-Amino-N,N′-diethyl-5-(2,3,5-trichloro-phenyl)-pyridine-2-carboxamidine] | 2940 |
| C/N=C(\NCC(F)(F)F)c1ccc(-c2cc(Cl)cc(Cl)c2Cl)c(N)n1 [Example 6, 6-Amino-N-methyl-5-(2,3,5-trichloro-phenyl)-N′-(2,2,2-trifluoro-ethyl)-pyridine-2-carboxamidine] | 1330 |
| CNC(=N)c1ccc(-c2cc(Cl)cc(Cl)c2Cl)c(N)n1 [Example 7, 6-Amino-N-methyl-5-(2,3,5-trichloro-phenyl)-pyridine-2-carboxamidine] | 2400 |
| CNC(=S)c1ccc(-c2cc(Cl)cc(Cl)c2Cl)c(N)n1 [Example 1, 6-Amino-5-(2,3,5-trichloro-phenyl)-pyridine-2-carbothioic acid methylamide] | 2930 |
| C/N=C(\NC)c1ccc(-c2cc(Cl)cc(Cl)c2Cl)c(N)n1 [Example 3, 6-Amino-N,N′-dimethyl-5-(2,3,5-trichloro-phenyl)-pyridine-2-carboxamidine] | 1820 |
